Reference: patent publication US9062051B2, “Compounds and pharmaceutical compositions thereof for the treatment of proliferative disorders” (GALAPAGOS NV, priority 2014, dated 2015)

Key:
[1] = Pharmacokinetics in rats (exposure, AUC); assay type: in vivo, male Sprague Dawley rats; conditions: po; for AUC: male, Sprague Dawley, rat, plasma
Description: This study is performed with 6 naïve male Sprague Dawley rats (180-200 g, 6-8 weeks old). Rats are obtained from Janvier, Le Genest St Isle, France.
A controlled environment is maintained in the room with optimal conditions of approximately 15 air changes per hour, a temperature of 22±2 C, a relative humidity of 30-70% and a 12 hour light/dark cycle
Pelleted diet for rodents (UAR A04C-10) is used and is provided ad libitum. Before p.o. dosing, the animals are deprived of food for at least 12 hours before compound administration and 4 hours after administration. All animals had free access to tap water.
Two days before the dosing day, the implantation of a catheter in the jugular vein is done under gaseous anaesthesia with isoflurane.
Rats are dosed intravenously with test compound via a bolus in the tail vein with a dose level of 1 mg/kg. […]
The i.v. bolus and the oral administration are given a dose volume of 5 mL/kg.
From all animals approximately 200 μL blood samples are collected via the catheter and placed into tubes containing Li-heparin as anticoagulant. Blood samples are collected at the various time points (i.v.: 0.05, 0.25, 0.5, 1, 3, 5, 8 and 24 hours after dosing; p.o.: 0.25, 0.5, 1, 3, 5, 8 and 24 hours after dosing).
Blood is kept on ice. Within 1 hour after sampling, blood is centrifuged at 5,000 rpm for 10 min at 4° C. Immediately after centrifugation, the resulting plasma samples are collected into polypropylene tubes and are kept frozen at −20° C. pending bioanalysis.
Plasma samples are assayed by LC-MS/MS. Plasma proteins are precipitated with an excess of methanol containing the internal standard and the corresponding supernatant is injected on a C18 column. Analytes are eluted out the HPLC system by increasing the percentage of the organic mobile phase. An API4000 mass spectrometer (AB Sciex™) is used for the detection and quantification.
Pharmacokinetic parameters are calculated by non-compartmental analysis using WinNonlin® software (Pharsight, version 5.2).

Recombinant EphB2 = target: T1, Recombinant EphB2 (Homo sapiens, UniProt P29323); test: EphB2 assay (33P incorporation into poly GT, filter plate); assay type: biochemical; conditions: read-out: EphB2 potency IC50
T1 construct: purchased Carna 08-129
T1 sequence (P29323 19-986 isoform P29323-2 limits assumed): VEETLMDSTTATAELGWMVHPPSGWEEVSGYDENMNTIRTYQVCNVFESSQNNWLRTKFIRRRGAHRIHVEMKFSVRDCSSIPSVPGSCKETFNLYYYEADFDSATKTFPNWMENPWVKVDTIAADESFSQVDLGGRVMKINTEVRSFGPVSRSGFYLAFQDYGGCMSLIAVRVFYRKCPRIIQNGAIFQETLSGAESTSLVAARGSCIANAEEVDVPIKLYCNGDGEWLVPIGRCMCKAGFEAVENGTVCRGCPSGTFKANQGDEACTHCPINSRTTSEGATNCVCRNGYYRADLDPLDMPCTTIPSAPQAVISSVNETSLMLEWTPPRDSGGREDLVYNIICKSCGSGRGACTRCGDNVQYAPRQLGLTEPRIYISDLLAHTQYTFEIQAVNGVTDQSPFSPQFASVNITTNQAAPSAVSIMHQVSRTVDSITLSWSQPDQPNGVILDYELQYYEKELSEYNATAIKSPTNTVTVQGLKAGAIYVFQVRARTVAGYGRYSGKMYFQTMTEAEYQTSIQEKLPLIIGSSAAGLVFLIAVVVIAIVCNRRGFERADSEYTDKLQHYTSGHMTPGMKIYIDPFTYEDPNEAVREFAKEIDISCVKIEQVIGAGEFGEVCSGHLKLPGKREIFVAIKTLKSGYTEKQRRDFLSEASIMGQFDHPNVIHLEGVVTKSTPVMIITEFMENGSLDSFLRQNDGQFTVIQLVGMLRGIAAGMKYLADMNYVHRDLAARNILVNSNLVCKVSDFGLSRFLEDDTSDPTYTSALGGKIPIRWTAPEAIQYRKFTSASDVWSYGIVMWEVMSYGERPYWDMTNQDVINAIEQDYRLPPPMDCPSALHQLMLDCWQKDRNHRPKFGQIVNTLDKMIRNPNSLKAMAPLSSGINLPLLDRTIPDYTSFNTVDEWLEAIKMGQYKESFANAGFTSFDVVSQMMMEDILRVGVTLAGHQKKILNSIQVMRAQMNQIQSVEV
Description: The principle of the assay consists of the measurement of incorporated ^33P into the substrate poly GT when phosphorylated by the enzyme EphB2 using [^33P]-γ-ATP and ATP. Unincorporated ^33P is removed by loading the samples on a filter plate (using a harvester, Perkin Elmer) and 6 subsequent washing steps. ^33P incorporated in polyGT is measured on a Topcount after addition of microscint to the filter plates (Perkin Elmer).
Recombinant EphB2 (Carna Cat#08-129, 0.6 ng per well) was incubated with 0.05 mg/mL Poly(Glu,Tyr)sodium salt (4:1), MW 20 000-50 000 (Sigma catalog number P0275) in kinase reaction buffer (10 mM MOPS pH 7.2, 5 mM DTT, 0.01% Triton-X100, 5 mM MnCl2, 0.5 mM Na3VO4, 5 mM beta-glycerolphosphate), 0.5 μM non-radioactive ATP, 0.25 μCi/25 μl ^33P-gamma-ATP (Perkin Elmer, catalog number NEG602K) final concentrations with or without 5 μL containing test compound or vehicle (DMSO, 1% final concentration), in a total volume of 25 μL, in a polypropylene 96-well plate (Greiner, V-bottom). After 45 min at 30° C., reactions were stopped by adding of 25 μL/well of 150 mM phosphoric acid. The experiment was then conducted as described for EphA7. The ability of a test compound to inhibit the kinase activity was determined using counts per minutes (cpm) measured by the Topcount as:
Cpm (cpd): cpm determined for sample with test compound present
Cpm (control): cpm determined for sample with positive control inhibitor (10 μM staurosporine)
Cpm (vehicle): cpm determined in the presence of vehicle (1% DMSO)
Dose dilution series were prepared for the compounds enabling the testing of dose-response effects in the EphB2 assay and the calculation of the IC50 for each compound. Each compound was routinely tested at concentration of 20 μM followed by a 1/5 serial dilution, 10 points in a final concentration of 1% DMSO. When potency of compound series increased, more dilutions may be prepared and/or the top concentration may be lowered (e.g. 5 μM, 1 μM).

| SMILES | AUC ([1]; 5 mg/kg) [ng·h/mL] | IC50 (Recombinant EphB2) [nM] | also measured |
| --- | --- | --- | --- |
| Cc1ccc(NC(=O)c2cccc(C(F)(F)F)c2)cc1-c1ccc2c(C(O)CN3CCOCC3)n[nH]c2n1 (stereo not shown) [Compound 2, N-{3-[3-(1-Hydroxy-2-morpholin-4-yl-ethyl)-1H-pyrazolo[3,4-b]pyridin-6-yl]-4-methyl-phenyl}-3-trifluoromethyl-benzamide] | 852 | 25 to 50 | Exposure AUC ([1]; 5 mg/kg): 659 ng·h/mL |
| Cc1cccc(C(=O)Nc2ccc(C)c(-c3ccc4c(C(O)CN5CCOCC5)n[nH]c4n3)c2)c1 (stereo not shown) [Compound 3, N-{3-[3-(1-Hydroxy-2-morpholin-4-yl-ethyl)-1H-pyrazolo[3,4-b]pyridin-6-yl]-4-methyl-phenyl}-3-methyl-benzamide] | 214 | 50 to 100 | Exposure AUC ([1]; 5 mg/kg): 159 ng·h/mL |
| COc1cc(OC)cc(C(=O)Nc2ccc(C)c(-c3ccc4c(C(O)CN5CCOCC5)n[nH]c4n3)c2)c1 (stereo not shown) [Compound 4, N-{3-[3-(1-Hydroxy-2-morpholin-4-yl-ethyl)-1H-pyrazolo[3,4-b]pyridin-6-yl]-4-methyl-phenyl}-3,5-dimethoxy-benzamide] |  | 50 to 100 | AUC ([1]; 5 mg/kg, formulated in methylcellulose 5% in water): 407 ng·h/mL |
| Cc1ccc(C(=O)Nc2cccc(C(F)(F)F)c2)cc1-c1ccc2c(C(O)CN3CCOCC3)n[nH]c2n1 (stereo not shown) [Compound 5, 3-[3-(1-Hydroxy-2-morpholin-4-yl-ethyl)-1H-pyrazolo[3,4-b]pyridin-6-yl]-4-methyl-N-(3-trifluoromethyl-phenyl)-benzamide] |  | > 100 |  |
| Cc1ccc(NC(=O)c2cccc(N(C)C)c2)cc1-c1ccc2c(C(O)CN3CCOCC3)n[nH]c2n1 (stereo not shown) [Compound 6, 3-Dimethylamino-N-{3-[3-(1-hydroxy-2-morpholin-4-yl-ethyl)-1H-pyrazolo[3,4-b]pyridin-6-yl]-4-methyl-phenyl}-benzamide] | 1790 | 25 to 50 |  |
| COc1cc(OC)cc(C(=O)Nc2ccc(C)c(-c3ccc4c(C(C)O)n[nH]c4n3)c2)c1 (stereo not shown) [Compound 9, N-{3-[3-(1-Hydroxy-ethyl)-1H-pyrazolo[3,4-b]pyridin-6-yl]-4-methyl-phenyl}-3,5-dimethoxy-benzamide] | 3260 | 25 to 50 |  |
| COc1cc(OC)cc(C(=O)Nc2ccc(C)c(-c3ccc4c(C)n[nH]c4n3)c2)c1 [Compound 11, 3,5-Dimethoxy-N-[4-methyl-3-(3-methyl-1H-pyrazolo[3,4-b]pyridin-6-yl)-phenyl]-benzamide] |  | 0.01 to 25 |  |
| CCc1n[nH]c2nc(-c3cc(NC(=O)c4cc(OC)cc(OC)c4)cnc3C)ccc12 [Compound 13, N-[5-(3-Ethyl-1H-pyrazolo[3,4-b]pyridin-6-yl)-6-methyl-pyridin-3-yl]-3,5-dimethoxy-benzamide] | 1420 | 50 to 100 |  |
| Cc1cc(C)cc(C(=O)Nc2ccc(C)c(-c3ccc4c(CO)n[nH]c4n3)c2)c1 [Compound 16, N-[3-(3-Hydroxymethyl-1H-pyrazolo[3,4-b]pyridin-6-yl)-4-methyl-phenyl]-3,5-dimethyl-benzamide] |  | 0.01 to 25 |  |
| COc1cc(OC)cc(C(=O)Nc2cnc(C)c(-c3ccc4c(C)n[nH]c4n3)c2)c1 [Compound 17, 3,5-Dimethoxy-N-[6-methyl-5-(3-methyl-1H-pyrazolo[3,4-b]pyridin-6-yl)-pyridin-3-yl]-benzamide] | 1230 | 25 to 50 |  |
| CCc1n[nH]c2nc(-c3cc(NC(=O)c4cc(C)cc(OCCN5CCOCC5)c4)ccc3C)ccc12 [Compound 20, N-[3-(3-Ethyl-1H-pyrazolo[3,4-b]pyridin-6-yl)-4-methyl-phenyl]-3-methyl-5-(2-morpholin-4-yl-ethoxy)-benzamide] |  | 0.01 to 25 |  |
| CCc1n[nH]c2nc(-c3cc(NC(=O)c4cc(C)cc(OCCOC)c4)ccc3C)ccc12 [Compound 21, N-[3-(3-Ethyl-1H-pyrazolo[3,4-b]pyridin-6-yl)-4-methyl-phenyl]-3-(2-methoxy-ethoxy)-5-methyl-benzamide] |  | 0.01 to 25 |  |

Second part, led by results:

| AUC ([1]; 5 mg/kg) [ng·h/mL] | IC50 (Recombinant EphB2) [nM] | SMILES | also measured |
| --- | --- | --- | --- |
| 5840 | 0.01 to 25 | COc1cc(OC)cc(C(=O)Nc2ccc(C)c(-c3ccc4c(C5(O)CC5)n[nH]c4n3)c2)c1 [Compound 29, N-{3-[3-(1-Hydroxy-cyclopropyl)-1H-pyrazolo[3,4-b]pyridin-6-yl]-4-methyl-phenyl}-3,5-dimethoxy-benzamide] |  |
| 3570 | 50 to 100 | Cc1ccc(NC(=O)c2cccc(C(F)(F)F)c2)cc1-c1ccc2c(C(C)O)n[nH]c2n1 (stereo not shown) [Compound 35, N-{3-[3-(1-Hydroxy-ethyl)-1H-pyrazolo[3,4-b]pyridin-6-yl]-4-methyl-phenyl}-3-trifluoromethyl-benzamide] |  |
|  | > 100 | CCc1n[nH]c2nc(-c3cc(NC(=O)c4cc(OC)cc(C(F)(F)F)c4)cnc3C)ccc12 [Compound 49, N-[5-(3-Ethyl-1H-pyrazolo[3,4-b]pyridin-6-yl)-6-methyl-pyridin-3-yl]-3-methoxy-5-trifluoromethyl-benzamide] |  |
| 1270 | > 100 | CCc1n[nH]c2nc(-c3cc(NC(=O)c4cc(C)cc(C)c4)cnc3C)ccc12 [Compound 50, N-[5-(3-Ethyl-1H-pyrazolo[3,4-b]pyridin-6-yl)-6-methyl-pyridin-3-yl]-3,5-dimethyl-benzamide] |  |
| 965 | 0.01 to 25 | Cc1ccc(NC(=O)c2cccc(C(F)(F)F)c2)cc1-c1ccc2c([C@H](C)O)n[nH]c2n1 [Compound 55, N-{3-[3-((S)-1-Hydroxy-ethyl)-1H-pyrazolo[3,4-b]pyridin-6-yl]-4-methyl-phenyl}-3-trifluoromethyl-benzamide] | AUC ([1]; 3 mg/kg): 1060 ng·h/mL; AUC ([1]; 30 mg/kg): 13600 ng·h/mL |
| 273 | 0.01 to 25 | Cc1ccc(NC(=O)c2cccc(C(F)(F)F)c2)cc1-c1cc(C)c2c(N)n[nH]c2n1 [Compound A, N-(3-(3-amino-4-methyl-1H-pyrazolo[3,4-b]pyridin-6-yl)-4-methylphenyl)-3-(trifluoromethyl)benzamide] |  |
